The test addresses T1, EGFR del746-750 T790M (Homo sapiens, UniProt P00533, DEL746-750/T790M).
T1 construct: purchased Carna Biosciences 08-528
As to the kind of experiment: EGFR del746-750 T790M biochemical assay (Caliper mobility shift). Conditions: 5 μM ATP, 30 min, room temperature; apparent Ki (Morrison) converted by Cheng-Prusoff, Km of ATP 2.1 μM; read-out: EGFR(T790M/d746-750) Ki.
T1 sequence (P00533 with tags, fused parts or gaps DEL746-750/T790M limits assumed): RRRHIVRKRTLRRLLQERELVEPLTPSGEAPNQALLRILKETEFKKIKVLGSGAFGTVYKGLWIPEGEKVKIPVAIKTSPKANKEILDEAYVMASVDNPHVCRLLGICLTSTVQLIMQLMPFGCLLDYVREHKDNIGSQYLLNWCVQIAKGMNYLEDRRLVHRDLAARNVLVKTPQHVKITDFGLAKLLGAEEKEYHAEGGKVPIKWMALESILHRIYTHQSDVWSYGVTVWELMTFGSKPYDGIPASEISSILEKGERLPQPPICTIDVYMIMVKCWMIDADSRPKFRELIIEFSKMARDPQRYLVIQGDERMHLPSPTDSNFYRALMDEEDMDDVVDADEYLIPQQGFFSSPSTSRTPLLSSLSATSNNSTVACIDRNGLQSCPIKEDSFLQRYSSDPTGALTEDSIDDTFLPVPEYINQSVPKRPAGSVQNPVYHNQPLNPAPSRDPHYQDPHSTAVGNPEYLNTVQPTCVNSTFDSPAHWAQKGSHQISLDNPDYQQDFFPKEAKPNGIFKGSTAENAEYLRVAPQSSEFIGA
Consider `Cc1nc2cnc(Nc3ccnc(N4CC[C@H](O)[C@H](F)C4)n3)cc2n1C(C)C` (racemic) [Example 505, (±)-3-Fluoro-1-(4-((1-isopropyl-2-methyl-1H-imidazo [4,5-c]pyridin-6-yl)amino)pyrimidin-2-yl)piperidin-4-ol], for which the Ki came to 42.8 nM.

For the compound `CO[C@H]1CCN(c2nccc(Nc3cc4c(cn3)nc(CO)n4C(C)C)n2)C[C@H]1C(F)(F)F` (racemic) [Example 628, (1-Isopropyl-6-(2-((±)-(cis)-4-methoxy-3-(trifluoromethyl)piperidin-1-yl)pyrimidin-4-ylamino)-1H-imidazo[4,5-c]pyridin-2-yl)methanol], the Ki stood at 1190 nM.

In the case of `COC1CCN(c2nccc(Nc3cc4c(cn3)nc(C)n4C(C)(C)C)n2)CC1` [Example 163, (1-tert-butyl-2-methyl-1H-imidazo[4,5-c]pyridin-6-yl)-[2-(4-methoxypiperidin-1-yl)pyrimidin-4-yl]amine], the Ki was 14.9 nM.

Consider `Cc1nc2cnc(Nc3ccnc(N4CC[C@H](F)C4)n3)cc2n1C(C)C` [Example 592, [2-((S)-3-Fluoropyrrolidin-1-yl)pyrimidin-4-yl]-(1-isopropyl-2-methyl-1H-imidazo[4,5-c]pyridin-6-yl)amine], for which the Ki came to 57.5 nM.

`COC1CCN(c2nccc(Nc3cc4c(cn3)nc(C)n4C(C)CC#N)n2)CC1` (centres unmarked) [Example 349, 3-(6-((2-(4-Methoxypiperidin-1-yl)pyrimidin-4-yl)amino)-2-methyl-1H-imidazo[4,5-c]pyridin-1-yl)butanenitrile]: the Ki amounted to 692 nM.

Regarding `CCC(C)n1cc(C(=O)NC2CCN(C3COC3)CC2)c2cnc(Nc3ccnc(N4CC[C@@H](OC)[C@@H](F)C4)n3)cc21` (single isomer, unassigned) [Example 325], the Ki is 3.35 nM.

With `CC(n1cc(C(=O)NC2CCOCC2)c2cnc(Nc3ccnc(-c4cnn(S(=O)(=O)C5CC5)c4)n3)cc21)C(F)(F)F` (centres unmarked) [Example 635, 6-(2-(1-(Cyclopropylsulfonyl)-1H-pyrazol-4-yl)pyrimidin-4-ylamino)-N-(tetrahydro-2H-pyran-4-yl)-1-(1,1,1-trifluoropropan-2-yl)-1H-pyrrolo[3,2-c]pyridine-3-carboxamide], the Ki is 4.53 nM.

Regarding `CC(C)n1c([C@@H](C)O)nc2cnc(Nc3ccnc(N4CC[C@@H](O)[C@@H](F)C4)n3)cc21` [Example 658], the Ki was found to be 44.3 nM.

Regarding `Cc1nc2cnc(Nc3ccnc(N4CCC5(CC4)OCCCO5)n3)cc2n1C(C)C` [Example 648], the Ki was 219 nM.

On to `COC1CCN(c2nccc(Nc3cc4c(cn3)c(C(=O)NCCn3ccnc3)cn4C(C)C)n2)CC1` [Example 63, N-(2-(1H-Imidazol-1-yl)ethyl)-1-isopropyl-6-(2-(4-methoxypiperidin-1-yl)pyrimidin-4-ylamino)-1H-pyrrolo[3,2-c]pyridine-3-carboxamide], for which the Ki worked out at 10.1 nM.

Consider `COC1CCN(c2nccc(Nc3cc4c(cn3)c(-c3cn[nH]c3)cn4C(C)C)n2)CC1` [Example 401, 1-isopropyl-N-(2-(4-methoxypiperidin-1-yl)pyrimidin-4-yl)-3-(1H-pyrazol-4-yl)-1H-pyrrolo[3,2-c]pyridin-6-amine], for which the Ki was 2.66 nM.

For `O=C1CC(n2c(CO)nc3cnc(Nc4ccnc(-c5cnn(S(=O)(=O)C6CC6)c5)n4)cc32)CN1` (centres unmarked) [Example 694], the Ki stood at 709 nM.

Turning to `Cc1nc2cnc(Nc3ccnc(N4CCC(O)C(F)(F)C4)n3)cc2n1C(C)C` (racemic) [Example 507, (±)-3,3-Difluoro-1-(4-((1-isopropyl-2-methyl-1H-imidazo[4,5-c]pyridin-6-yl)amino)pyrimidin-2-yl)piperidin-4-ol], the Ki was determined as 21.6 nM.

Regarding `COC1CCN(c2nccc(Nc3cc4c(cn3)nc(C)n4-c3ccccc3)n2)CC1` [Example 494, N-(2-(4-Methoxypiperidin-yl)pyrimidin-4-yl)-2-methyl-1-phenyl-1H-imidazo[4,5-c]pyridin-6-amine], the Ki was found to be 30.4 nM.

Consider `COCCC(C)(C)n1c(CO)nc2cnc(Nc3ccnc(-c4cnn(S(=O)(=O)C5CC5)c4)n3)cc21` [Example 695], for which the Ki worked out at 68.8 nM.

For the compound `CCC(C)n1cc(C(=O)NCCO)c2cnc(Nc3ccnc(-c4cnn(S(=O)(=O)C5CC5)c4)n3)cc21` (centres unmarked) [Example 703], the Ki was found to be 2.5 nM.

On to `CCC(C)n1cc(C(=O)NC2COCCOC2)c2cnc(Nc3ccnc(-c4cnn(S(=O)(=O)C5CC5)c4)n3)cc21` (centres unmarked) [Example 700], for which the Ki came to 1.65 nM.

As for `Cc1nc2cnc(Nc3ccnc(N4CCc5cn[nH]c5C4)n3)cc2n1C(C)C` [Example 651], the Ki amounted to 9.14 nM.

For `CO[C@@H]1CCN(c2nccc(Nc3cc4c(cn3)nc(CO)n4C(C)C)n2)C[C@H]1C(F)(F)F` (racemic) [Example 629, (1-Isopropyl-6-(2-((±)-(trans)-4-methoxy-3-(trifluoromethyl)piperidin-1-yl)pyrimidin-4-ylamino)-1H-imidazo[4,5-c]pyridin-2-yl)methanol], the Ki came to 2960 nM.

With `COC1CCN(c2nccc(Nc3cc4c(cn3)nc3n4C(C)(C)CO3)n2)CC1` [Example 532, N-(2-(4-methoxypiperidin-1-yl)pyrimidin-4-yl)-3,3-dimethyl-2,3-dihydrooxazolo[3′,2′:1,2]imidazo [4,5-c]pyridin-6-amine], the Ki was 519 nM.

In the case of `Cc1nc2cnc(Nc3ccnc(-c4cnn(S(C)(=O)=O)c4)n3)cc2n1C(C)C` [Example 91, 1-isopropyl-2-methyl-N-(2-(1-(methylsulfonyl)-1H-pyrazol-4-yl)pyrimidin-4-yl)-1H-imidazo[4,5-c]pyridin-6-amine], the Ki turned out to be 3.5 nM.

As for `CC(C)n1c([C@@H](C)O)nc2cnc(Nc3ccnc(-c4cnn(S(=O)(=O)C5CC5)c4)n3)cc21` [Example 561, (R)-1-{6-[2-(1-Cyclopropanesulfonyl-1H-pyrazol-4-yl)pyrimidin-4-ylamino]-1-isopropyl-1H-imidazo[4,5-c]pyridin-2-yl}ethanol], the Ki was 1.73 nM.

For the compound `CCC(C)n1cc(C(=O)NC2CCOCC2)c2cnc(Nc3ccnc(N4CCC(C)(O)CC4)n3)cc21` (racemic) [Example 638, 1-(sec-butyl)-6-((2-(4-hydroxy-4-methylpiperidin-1-yl)pyrimidin-4-yl)amino)-N-(tetrahydro-2H-pyran-4-yl)-1H-pyrrolo[3,2-c]pyridine-3-carboxamide], the Ki was 14.9 nM.

With `Cc1nc2cnc(Nc3ccnc(-c4cnn(CCCN)c4)n3)cc2n1C(C)C` [Example 430, N-(2-(1-(3-aminopropyl)-1H-pyrazol-4-yl)pyrimidin-4-yl)-1-isopropyl-2-methyl-1H-imidazo[4,5-c]pyridin-6-amine], the Ki stood at 47.7 nM.

In the case of `CO[C@H]1[C@@H]2CC[C@H]1CN(c1nccc(Nc3cc4c(cn3)nc(CO)n4C(C)C)n1)C2` [Example 273, (1-Isopropyl-6-((2-((1R,5R,8r)-8-methoxy-3-azabicyclo[3.2.1]octan-3-yl)pyrimidin-4-yl)amino)-1H-imidazo[4,5-c]pyridin-2-yl)methanol], the Ki stood at 23.7 nM.

As to `Cc1cc(-c2nccc(Nc3cc4c(cn3)nc(C)n4C(C)C)n2)sn1` [Example 360, 1-Isopropyl-2-methyl-N-(2-(3-methylisothiazol-5-yl)pyrimidin-4-yl)-1H-imidazo[4,5-c]pyridin-6-amine], the Ki is 29.7 nM.

The record behind these values is patent publication US9890152B2 (Genentech, Inc., priority 2012, dated 2018).
